The text below walks through data of patent US7662565B2, “Approaches to identify less harmful tobacco and tobacco products” (Vector Tobacco, Inc., priority 2004, dated 2010).

Where two headings read alike, the source gives them in different places.

For data set [1], the system named is A549 cells. Nature of the data set: γH2AX DNA damage assay, A549 cells exposed to whole smoke or vapor phase of smoke (Example 2). In kind it is cell-based, human. The conditions noted are these: for suppression of DNA damage (γH2AX): 25 mM NAC present during exposure; for effect of NAC on DNA damage: 25 mM NAC during exposure (FIG. 10); for IC50: Homo sapiens, from graph FIG. 11, read-out: concentration of NAC that reduced DNA damage by 50%.

In the next data set the test system is NHBE cells. Nature of the data set: γH2AX DNA damage assay, NHBE cells exposed to whole smoke or vapor phase of smoke (Example 2). In kind it is cell-based, human. The source says:
In order to compare DNA damage as a function of the cell's position in the cell cycle, γH2AX values were normalized to DNA content since histone content doubles as cells proceed from G1 to G2 phase. Thus, in order to determine any change in histone H2AX phosphorylation independent of changes in histone/DNA content or DNA ploidy, the values for S and G2M phase populations, gated according to DNA content, were multiplied by 0.75 and 0.5, respectively. In instances where “normalized” values of γH2AX are presented, these values were obtained by subtracting the mean values of each cell cycle population (or the total population) from the mean of the mock-treated population whose γH2AX values represent “scheduled” γH2AX expression. In all instances, the values presented represent the mean γH2AX fluorescence of the population; typically 3-5×10^3 cells were analyzed for each condition.
The response of NHBE cells to whole smoke from IM 16 cigarettes was more or less identical to that observed for A549 cells (FIG. 7C). The one difference between the two cell lines was that S phase cells in NHBE cultures always expressed higher “scheduled” amounts of γH2AX.
In the next series of experiments, it was determined that DNA damage caused by whole smoke can be mitigated by the presence of NAC. Using a standardized set of conditions (20 min of exposure followed by a 1 h recovery), DNA damage caused by whole smoke from IM 16 cigarettes was assayed in both A549 and NHBE cells. NAC at a concentration of 25 mM was either absent or present during exposure and absent or present during the 1 h recovery time. In this instance, the background or “scheduled” γH2AX expression observed in Mock-treated cells was subtracted from each measurement. The remaining fluorescence should be indicative of the level of DNA DSBs under each set of conditions.
The vapor phase from IM 16 CS cause only about 30% (29.7%) of the damage caused by whole smoke whereas the vapor phase of smoke from Quest 1® caused 97% less damage than whole smoke from IM 16 cigarettes.

Data set [2] relates to A549 cells. Briefly: Clonogenic survival assay (Example 3). In kind it is cell-based. How it is done:
A clonogenic survival assay was used to study the ability of tobaccos and tobacco products to impact the proliferation of cells. The experiment involves four major steps: (1) inoculate cells into culture dishes and incubate for 24-48 hours; (2) upon reaching the logarithmic phase of growth, the treatment is applied; the treatment in this case is freshly prepared and diluted CS for increasing periods of time; (3) the cells are then allowed to recover for a set number of hours (up to 24), then the cells are trypsinized, replated at specific dilutions, and allowed to continue growing for 5-7 days; the number of cells used depends largely on the plating efficiency of the cell line and must be determined empirically prior to the experiment; and (4) at the conclusion of the experiment, the cells are fixed, stained, and counted. The primary measure is to count surviving colonies of 25-50 cells which is presented as the percentage of cells which survived the treatment. A graphical representation of survival versus exposure time to CS is then generated. The surviving fraction is determined by dividing the number of colonies in the dish by the number of the colonies in the control (non-treated) dish.
A549 cells were exposed to smoke as previously described (see above). Following smoke exposure the medium is aspirated and the cells rinsed refed with 37° C. BEGM and placed in a 37° C., 5% CO2 humidified incubator for two to three hours. The cells are harvested by trypsinization with trypsin-EDTA (0.25% trypsin-0.38 mg/ml EDTA, Invitrogen). Cells are centrifuged at 260×g for 8 min. Cell pellets are resuspended in 1 ml of Ham's F-12K medium, 10% FBS (complete medium) per pellet and counted. Cells are serially diluted so that the mock treated have ˜65 cells per well and smoke treated have ˜300 cells per well when seeded onto 96-well flat bottom tissue culture plates; one plate per condition. The plates are incubated for five days in a 37° C., 5% CO2 humidified incubator. The colonies of cells are fixed with 5% formaldehyde/PBS and colored with 0.8% crystal violet solution for visualization. The colonies are counted with the aid of a macroscopic dissecting microscope. The cloning efficiency results are expressed in relation to the mock exposed cells. Unless otherwise indicated, each bar in the graphs represents three replicate data points per experiment.
In yet another series of experiments, the effect of NAC on cell death caused by the VAPOR phase of smoke from different cigarettes was evaluated. A549 cells were exposed to the vapor phase of smoke for 20 min by inserting a Cambridge filter pad immediately after the cigarette in the smoking apparatus so as to filter out the particulate matter (“tar”) and leave only the vapor phase. […]

The test system of a further data set is tobacco leaf disks. Briefly: Norflurazone resistance of tobacco leaf disks transformed with PDSM genes. The settings on record: Agrobacterium transformation of tobacco leaf disks; various norflurazone concentrations. How it is done: Other aspects of the invention concern the discovery of several mutants of the phytoene desaturase gene that confer resistance to the herbicide norflurazone (e.g., SEQ. ID. Nos.10, 11, and 12). These herbicide resistance genes were used as selectable markers in the transformations above. Typically, the selection was accomplished by introducing the transformed plant tissue to the norflurazone (e.g., 0.005 uM-0.1 uM conc.). That is, the concentration of norflurazone that can be used to select positive transformants containing a norflurazone resistance gene, as described herein can be at least, less than, greater than, or equal to 0.005, 0.006, 0.007, 0.008, 0.009, 0.01, 0.02, 0.03, 0.04, 0.05, 0.06, 0.07, 0.08, 0.09, 0.1, 0.2, 0.3, 0.4, 0.5, 0.6, 0.7, 0.8, 0.9, or 1.0 uM. Preferably, less than or equal to 0.05 uM concentration of norflurazone is used when selecting transformants with Flue-cured tobacco and less than or equal to 0.0125 uM concentration norflurazone is used when selecting transformants with Burley tobacco. As the plantlet develops, selection was accomplished by differentiating the green shoots (positive transformants) from the yellow or white shoots (negative transformants). Once selection was made, the herbicide was removed and the plantlet was allowed to develop in the greenhouse.
The norflurazone resistant phytoene desaturase mutants (PDSM-1, PDSM-2, and PDSM-3) were generated by site-directed mutagenesis of particular regions of the gene believed to be involved in binding of the herbicide. Constructs carrying the various PDSM genes were then transferred to tobacco leaf disks by conventional Agrobacterium transformation and the resistance to norflurazone was analyzed at various concentrations. After several iterations, the mutants described as SEQ. ID. […] Accordingly, aspects of the invention concern the PDSM genes described herein, their use in plants as selectable markers to identify plant cells that contain a transformed gene, whether in tissue culture or in the field, and methods of identifying new PDSM genes that confer norflurazone resistance.

`CC(=O)N[C@@H](CS)C(=O)O` [NAC, N-acetyl-L-cysteine]: the “effect of NAC on vapor phase damage” value in the data set on A549 cells [1] (A549, each cell cycle phase, vapor phase from Quest 1 and Quest 3) is recorded as “reduced damage to background levels”; with NHBE cells (NHBE, vapor phase of smoke from IM 16 (FIG. 13)) it was “to background levels or below”; with NHBE cells (NHBE, vapor phase of smoke from Quest cigarettes), “inhibited”. Further, the “suppression of DNA damage (γH2AX)” value was “greater than 80%” in the data set on A549 cells [1] (A549, entire population, IM 16 whole smoke 20 min, 1 h recovery); 91% in the data set on A549 cells [1] (A549 G1 cells, IM 16 whole smoke); 88% with A549 cells [1] (A549 G2M cells, IM 16 whole smoke); 82% in the data set on A549 cells [1] (A549 S phase cells, IM 16 whole smoke). In addition, the “suppression of γH2AX” value in the data set on A549 cells [1] (A549, entire population, IM 16 whole smoke, 25 mM NAC during exposure and during 1 h recovery) is reported as 90%. Moreover, the “mitigation of DNA damage” value in the data set with A549 cells [1] (A549, IM 16 whole smoke, 25 mM NAC applied to the media following exposure only) is “did nothing to mitigate the DNA damage”. Besides, the “effect of NAC on DNA damage” value is reported as “dramatically reduced the effects of smoke” in the data set with A549 cells [1] (A549, smoke from IM 16); “reduced the damage to near background levels” in the data set with A549 cells [1] (A549, smoke from Omni); “reduced to background levels” with A549 cells [1] (A549, smoke from Quest 3). The “reduction of γH2AX by NAC” value in the data set on A549 cells [1] (A549, vapor phase of smoke from IM 16, NAC during exposure) stood at 93.2%; in the data set with A549 cells [1] (A549, vapor phase of smoke from Quest 1, NAC during exposure) it was 98.9%; in the data set on A549 cells [1] (A549, vapor phase of smoke from Quest 3, NAC during exposure), 100%; in the data set on A549 cells [1] (A549, whole smoke from IM 16, 25 mM NAC during exposure), 89.1%; with NHBE cells (NHBE, whole smoke from IM 16, NAC during exposure) it was 77.9%. Moreover, the “reduction of damage by NAC” value with A549 cells [1] (A549 G1 phase, vapor phase of smoke from IM 16) was determined as 98.5%; in the data set with A549 cells [1] (A549 G2M phase, vapor phase of smoke from IM 16), 92.2%; in the data set with A549 cells [1] (A549 S phase, vapor phase of smoke from IM 16), 89.0%. Moreover, the “concentration dependence of NAC protection” value in the data set on A549 cells [1] (G1 and G2M A549 cells, IM 16 whole smoke 20 min, 1 h recovery) is given as “began to decrease when as little as 1 mM NAC was present”; in the data set with A549 cells [1] (S phase A549 cells, IM 16 whole smoke 20 min, 1 h recovery) it was “unaffected by the presence of NAC up to a concentration of 5 mM”. Also, the IC50 in the data set on A549 cells [1] (A549, G1 phase A549 cells, IM 16 whole smoke) was approximately 4.5 mM; with A549 cells [1] (A549, G2M phase A549 cells, IM 16 whole smoke), approximately 7.5 mM; in the data set with A549 cells [1] (A549, S phase A549 cells, IM 16 whole smoke), approximately 2.6 mM. The “decrease of DNA damage by NAC” value is approximately 69% in the data set with NHBE cells (NHBE G1 cells, IM 16 whole smoke, 25 mM NAC present during exposure) and “about 65%” in the data set on NHBE cells (NHBE G2M cells, IM 16 whole smoke, 25 mM NAC present during exposure). The “protection by NAC” value is listed as “afforded no protection” in the data set on NHBE cells (NHBE S phase cells, IM 16 whole smoke, 25 mM NAC present during exposure); “small degree of additional protection” with NHBE cells (NHBE, IM 16 whole smoke, 25 mM NAC during exposure and recovery). Besides, in the data set on NHBE cells (NHBE, IM 16 whole smoke, 25 mM NAC only during recovery), the “effect of NAC on level of DNA damage” value is “little effect on the level of DNA damage”. Moreover, the “effect of NAC on vapor phase DNA damage” value in the data set with NHBE cells (NHBE, vapor phase of IM 16, Quest 1 or Quest 3) is “abolished virtually all DNA damage”. Moreover, the “protection of cell viability by NAC” value with A549 cells [2] (20 min IM16 smoke, various concentrations of NAC (FIG. 16)) is on record as “protected the viability of the cells in a dose-dependent manner”; in the data set on A549 cells [2] (20 min Omni or IM16 smoke, 25 mM NAC), “partially protected”; in the data set with A549 cells [2] (20 min Quest 3 smoke, 25 mM NAC) it was “completely protected”; with A549 cells [2] (all vapor phase exposures, 25 mM NAC) it was “protected the cells against viability loss”.
Turning to “PDSM-1: Arabidopsis phytoene desaturase mutant gene, T to G at position 1478 (Valine to Glycine at residue 493)”, the resistance to norflurazone entry in the data set on tobacco leaf disks is recorded as “confer resistance to norflurazone”.
For the molecule “PDSM-2: Arabidopsis phytoene desaturase mutant gene, G to C at position 863 (Arginine to Proline at residue 288)”, the resistance to norflurazone entry in the data set on tobacco leaf disks was “confer resistance to norflurazone”.
In the case of “PDSM-3: Arabidopsis phytoene desaturase mutant gene, T to C at position 1226 (Leucine to Proline at residue 409)”, the resistance to norflurazone result with tobacco leaf disks was “confer resistance to norflurazone”.
